Assay results from PubChem BioAssay (NCI).
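Five compound concentrations were applied to cells in 96-well plates for 48 hours; endpoints were derived by simple linear interpolation of the resulting dose-response curve. Here, GI50 denotes the concentration required for 50% inhibition of growth. Definition used: TGI = concentration required for complete inhibition of growth.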

Legend:
Assay in all cases: growth of human tumour cells (NCI), 48 h
IGROV1 ovarian = system: IGROV1 ovarian
A498 renal = system: A498 renal
A549 NSCLC = system: A549 NSCLC
LOX IMVI melanoma = system: LOX IMVI melanoma
SN12C renal = system: SN12C renal
SK-MEL-5 melanoma = system: SK-MEL-5 melanoma
HCT-116 colon = system: HCT-116 colon
TK-10 renal = system: TK-10 renal
UACC-62 melanoma = system: UACC-62 melanoma
SF-295 CNS = system: SF-295 CNS

SMILES	TGI (IGROV1 ovarian) [µM]	TGI (A498 renal) [µM]	TGI (A549 NSCLC) [µM]	TGI (LOX IMVI melanoma) [µM]	TGI (SN12C renal) [µM]	TGI (SK-MEL-5 melanoma) [µM]	TGI (HCT-116 colon) [µM]	TGI (TK-10 renal) [µM]	TGI (UACC-62 melanoma) [µM]	TGI (SF-295 CNS) [µM]	GI50 (IGROV1 ovarian) [µM]	GI50 (A498 renal) [µM]	GI50 (A549 NSCLC) [µM]	GI50 (LOX IMVI melanoma) [µM]	GI50 (SN12C renal) [µM]	GI50 (SK-MEL-5 melanoma) [µM]	GI50 (HCT-116 colon) [µM]	GI50 (TK-10 renal) [µM]	GI50 (UACC-62 melanoma) [µM]	GI50 (SF-295 CNS) [µM]
Oc1ccc2ccccc2c1N=Nc1cccc2ccccc12	> 100	> 100	> 100	> 100	> 100	> 100	> 100	> 100	> 100	> 100	–	–	–	–	–	–	–	–	–	–
CCCCCCCCCCCC(=O)OCCOCCOCCOCCOCCOC(=O)CCCCCCCCCCC	> 100	> 100	> 100	> 100	> 100	> 100	> 100	> 100	> 100	> 100	–	–	–	–	–	–	–	–	–	–
COCCOC(=O)C1=C(O)c2ccccc2S(=O)(=O)N1C	> 100	> 100	> 100	> 100	> 100	> 100	> 100	> 100	> 100	> 100	–	–	–	–	–	–	–	–	–	–
O=C(Nc1ccc(Cl)cc1)C1C(=O)C(=O)N(c2ccc(Cl)cc2)C1=O (stereo not given)	> 100	> 100	> 100	> 100	> 100	> 100	> 100	> 100	> 100	> 100	–	–	–	–	–	–	–	–	–	–
COc1cc(C=O)c(-c2c(C=O)ccc3c2OCO3)c(OC)c1OC	> 100	> 100	> 100	> 100	> 100	> 100	> 100	> 100	> 100	> 100	–	–	–	–	–	–	–	–	–	–
Cc1ccc(C2=C(c3ccc(C)cc3)C3(c4ccc(C)cc4)C4C(=O)OC(=O)C4C2(c2ccc(C)cc2)S3=O)cc1 (stereo not given)	> 100	63.4	> 100	73.7	87.9	57.6	92.5	> 100	19.6	37.7	25.7	21.9	32	18.5	25.1	21.3	23.7	38.8	3.57	13.1
N#CCC(=O)N/N=C1/C(=O)N(c2ccc(Cl)cc2)C(=O)C(=O)C1c1nc2ccccc2s1 (stereo not given)	> 100	> 100	> 100	> 100	> 100	> 100	> 100	> 100	> 100	> 100	–	–	–	–	–	–	–	–	–	–
Cc1ccc(S(=O)(=O)N=Nc2c(O)[nH]c3cc(O)c(C(=O)O)cc23)cc1	> 100	> 100	> 100	> 100	> 100	> 100	> 100	> 100	> 100	> 100	–	–	–	–	–	–	–	–	–	–
O=C1N/C(=C\[N+](=O)[O-])c2ccccc21	> 100	> 100	> 100	> 100	> 100	> 100	> 100	> 100	> 100	> 100	–	–	–	–	–	–	–	–	–	–
CC(C)CNc1nc(-c2ccccc2Cl)nc2ccccc12	> 100	32.6	33.5	27.6	30.6	29.8	30.2	29.6	27.4	28.4	19.7	18.5	14.1	14.5	16.5	16.2	16.6	15.8	14.3	14.9
CCOC(=O)[CH-]C(=O)C12CC3CC(CC(C3)C1)C2.CCOC(=O)[CH-]C(=O)C12CC3CC(CC(C3)C1)C2.CC[O-].CC[O-].[Ti+4]	> 100	> 100	> 100	> 100	> 100	> 100	> 100	> 100	> 100	> 100	> 100	> 100	> 100	> 100	> 100	> 100	> 100	> 100	> 100	> 100
Cc1cn(-c2cc(NC(=O)c3cccc(C#Cc4cccc5[nH]nc(N)c45)c3)cc(C(F)(F)F)c2)cn1	83.2	82.4	35.2	> 100	> 100	21.7	18.8	60.4	12.7	28.4	5.29	4.09	10.4	2.87	7.6	4.66	2.62	17.8	2.54	4.26
COc1ccc2c(c1)OC1=C(C(=O)OC1)C2c1cc(OC)c2c(c1)OCCO2 (stereo not given)	> 100	0.232	> 100	> 100	> 100	0.535	> 31.9	> 100	> 100	> 100	0.128	0.0249	0.0603	0.0802	0.0972	0.0347	0.0478	1.54	0.0456	0.0312
